Data published in patent publication US5124350A, “Leukotriene B4 antagonists” (G. D. Searle & Co., priority 1990, dated 1992).

Key:
LTB4 Receptor = target: T1, LTB4 Receptor (Homo sapiens, UniProt Q15722); experiment: LTB4 Receptor Binding Assay ((3H) LTB4, human neutrophils); conditions: relative to the compound of Example 1 (b), defined as 1.0
T1 construct: Neutrophils were purified from venous blood of normal human donors; endogenous in cells; host or cells: neutrophils from venous blood of normal human donors
Experimental: (§1) Neutrophils were purified from venous blood of normal human donors using standard techniques of dextran sedimentation, centrifugation on Ficoll-paque® (Pharmacia) or Histopaque® sterile solution (Sigma) and hypotonic lysis of erythrocytes (Boyum, A., Isolation of Leukocytes From Human Blood: Further Observations. Scand. J. Lab. Clin. Invest., 21 (Suppl. 97): 31, 1968). The purity of isolated neutrophils was>95%.
Neutrophils (4-6×10^6) in 1 ml Hanks' balanced salt solution (HBSS) containing 10 mM HEPES buffer , pH 7.4 and […] nordihydroguaiaretic acid were incubated with 0.6×10^-9 M (^3 H) LTB4 in the presence or absence of test compounds. The incubation was carried out at 0° C. for 45 minutes and terminated by adding 5ml of ice-cold HBSS followed by rapid filtration of the incubation mixture under vacuum through GF/C glass fiber filters. The filters were further washed with 10 ml HBSS and radioactivity was determined. Specific binding was defined as the difference between total binding and nonspecific binding which was not displaced by 10^-7 M unlabeled LTB4. All data refer to specific binding.

[1] = system: Human neutrophils (fMLP chemotaxis); experiment: Modified Boyden Chamber Chemotaxis, fMLP; type: cell-based; conditions: relative to the compound of Example 1 (b), defined as 1.0
Excerpt: [The procedure below names another target; the source lists this target under the same test.] as §1
(§2) Human neutrophils were isolated from citrated peripheral blood using standard techniques of dextran sedimentation, followed by centrifugation on Histopaque® sterile solution (Sigma) or Ficoll-paque® (Pharmacia) and hypotonic lysis of erythrocytes. A final cell suspension of 3.4×10^6 neutrophils/ml of HEPES-buffered Hanks' balanced salt solution (HBSS, pH 7.3) was added to the upper well (0.8 ml ) of a modified Boyden chamber (blind well). The lower well (0.2 ml), separated by a polycarbonate membrane (Nucleopore Corp.), contained HBSS or 3×10^-8 M LTB4 in the presence or absence of test compound. […] The number of neutrophils migrating into the lower chamber in the absence of chemoattractant was subtracted from the number of cells migrating in the presence of a chemoattractant. Inhibition of chemotaxis by test compounds was expressed as percent inhibition relative to uninhibited control.
(§3) Data are expressed as potency relative to the compound of Example i(b ), 7-[3,(4-acetyl-3-methoxy-2propylphenoxy)propoxy]-3,4-dihydro-8-propyl-2H-1-benzopyran-2-carboxylic acid, which is disclosed in U.S. Pat. No. 4,889,871.

[2] = system: Human neutrophils (LTB4 chemotaxis); experiment: Modified Boyden Chamber Chemotaxis, LTB4; type: cell-based; conditions: relative to the compound of Example 1 (b), defined as 1.0; 3×10^-8 M LTB4
Excerpt: as §1, §2, §3

T1 sequence (Q15722 whole entry): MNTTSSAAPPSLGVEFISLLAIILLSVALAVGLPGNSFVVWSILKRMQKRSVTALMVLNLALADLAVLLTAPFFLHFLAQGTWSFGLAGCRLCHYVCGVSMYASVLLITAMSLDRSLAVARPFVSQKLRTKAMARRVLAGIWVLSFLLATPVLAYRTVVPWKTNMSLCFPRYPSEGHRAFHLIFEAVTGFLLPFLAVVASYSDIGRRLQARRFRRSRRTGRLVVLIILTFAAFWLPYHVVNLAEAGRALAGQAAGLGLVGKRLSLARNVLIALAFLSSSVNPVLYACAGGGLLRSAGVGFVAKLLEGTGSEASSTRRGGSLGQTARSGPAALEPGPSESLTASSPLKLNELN

SMILES	Relative Potency, LTB4 Receptor Binding (LTB4 Receptor)	Relative Potency, Chemotaxis fMLP [1]	Relative Potency, Chemotaxis LTB4 [2]
C=CCc1c(OCCCOc2ccc3c(c2CCC)OC(CCC(=O)O)CC3)ccc(C(=O)NC)c1OC (stereo not drawn) [Example 9, 3,4-Dihydro-7-[3-[3-methoxy-4-[(methylamino)carbonyl]-2-(2-propenyl)phenoxy]propoxy]8-propyl-2H-1-benzopyran-2-propanoic acid]	8.9	0.38	12.3
CCCc1c(OCCCOc2ccc(C(=O)NC)c(OC)c2CCC)ccc2c1OC(CCC(=O)O)CC2 (stereo not drawn) [Example 14, 3,4-Dihydro-7-[3-[3-methoxy-4-[(methylamino)carbonyl]-2-propylphenoxy]propoxy]-8-propyl-2H-1-benzopyran-2-propanoic acid]	4.0	0.52	4.1
CCCc1c(OCCCOc2ccc(C(=O)NC)c(OC)c2CC2CC2)ccc2c1OC(C(=O)O)CC2 (stereo not drawn) [Example 19, 7-[3-[2-(Cyclopropylmethyl)-3-methoxy-4-[(methylamino)carbonyl]phenoxy]propoxy]-3,4-dihydro-8-propyl-2H-1-benzopyran-2-carboxylic acid]	5.3	1.57	16.9
C=CCc1c(OCCCOc2ccc3c(c2CCC)OC(C(=O)O)CC3)ccc(C(=O)NC)c1OC (stereo not drawn) [Example 26, 3,4-Dihydro-7-[3-[3-methoxy-4-[(methylamino)carbonyl]-2-(2-propenyl)phenoxy]propoxy]-8-propyl 2H-1-benzopyran-2-carboxylic acid]	2.1	0.95	7.6
C=CCc1c(OCCCOc2ccc3c(c2CCC)OC(C(=O)O)CC3)ccc(C(=O)N2CCCC2)c1OC (stereo not drawn) [Example 29, 3,4-Dihydro-7-[3-[3-methoxy-2-(2-propenyl)-4-(1-pyrrolidinylcarbonyl)phenoxy]propoxy]-8-propyl-2H-1-benzopyran-2-carboxylic acid]	1.0		0.18
C=CCc1c(OCCCOc2ccc3c(c2CCC)OC(C(=O)O)CC3)ccc(C(N)=O)c1OC (stereo not drawn) [Example 32, 7-[3-[4-(Aminocarbonyl)-3-methoxy-2-(2-propenyl)phenoxy]propoxy]-3,4-dihydro-8-propyl-2H-1-benzopyran-2-carboxylic acid]	2.1	1.5	4.0

The next lines start with results.

Relative Potency, LTB4 Receptor Binding (LTB4 Receptor)	SMILES	Relative Potency, Chemotaxis fMLP [1]	Relative Potency, Chemotaxis LTB4 [2]
0.81	CCCc1c(OCCCOc2ccc(C(=O)NC)c(OC)c2CCC)ccc2c1OC(C(=O)O)CC2 (stereo not drawn) [Example 35, 3,4-Dihydro-7-[3-[3-methoxy-2-propyl-4-[(methylamino)carbonyl]phenoxy]propoxy]-8-propyl-2H-1-benzopyran-2-carboxylic acid]		2.6
0.83	CCCc1c(OCCCOc2ccc(C(N)=O)c(OC)c2CCC)cccc1OCC(=O)O [Example 43, [3-[3-[4-(Aminocarbonyl)-3-methoxy-2-propylphenoxy]propoxy]-2-propylphenoxy]acetic acid]	≤ 0.63	1.1
0.71	CCCc1c(OCCCOc2ccc(C(=O)NC)c(OC)c2CCC)cccc1OCC(=O)O [Example 46, [3-[3-[3-Methoxy-4-[(methylamino)carbonyl]-2-propylphenoxy]propoxy]-2-propylphenoxy]acetic acid]	≤ 0.048	0.58
0.04	CCCc1c(OCCCOc2ccc(C(=O)N3CCCC3)c(OC)c2CCC)cccc1OCC(=O)O [Example 50, [3-[3-[3-Methoxy-2-propyl-4-(1-pyrrolidinylcarbonyl)phenoxy]propoxy]2-propylphenoxy]acetic acid]	< 0.48	0.05
1.0	C=CCc1c(OCCCOc2cccc(OCC(=O)O)c2CCC)ccc(C(N)=O)c1OC [Example 56, [3-[3-[4-(Aminocarbonyl)-3-methoxy-2-(2-propenyl)phenoxy]propoxy]-2-propylphenoxy] acetic acid]	< 0.63	2.6
0.04	C=CCc1c(OCCCOc2cccc(OCC(=O)O)c2CCC)ccc(C(=O)N2CCCC2)c1OC [Example 59, [3-[3-[3-Methoxy-2-(2-propenyl)-4-(1-pyrrolidinylcarbonyl)phenoxy]propoxy]-2-propylphenoxy]acetic acid]		< 0.9
8.5	CCCc1c(OCCCOc2ccc(C(=O)NC)c(OC)c2CC2CC2)ccc2c1OC(CCC(=O)O)CC2 (stereo not drawn) [Example 62, 7-[3-[2-(Cyclopropylmethyl)-3-methoxy-4-[(methylamino)carbonyl]phenoxy]propoxy]-3,4-dihydro-8-propyl-2H-1-benzopyran-2-propanoic acid]	0.69	17.4
